From patent US8258295B2, “Triazine derivatives, compositions containing such derivatives, and methods of treatment of cancer and autoimmune diseases using such derivatives” (Prometic Biosciences Inc., priority 2007, dated 2012)
Like-named read-outs stand apart in the source and are kept apart here.

Tests used:
[1] = system: HUVEC (human umbilical vein endothelial cell); assay: MTT cytotoxicity on HUVEC; format: cell-based
Description: (§1) This assay was performed to determine the effect of compounds of the present invention on cell cytotoxicity. Cells were incubated in presence or absence of compounds in their respective conditioned media. After 24 hr or 72 hr incubation, 50 μl of 3-(4,5-dimethyl-2-thiazyl)-2,5-diphenyl-2H-tetrazolium bromide (MTT; 2 mg/ml) was added and further incubated for 4 hr. The supernatant was discarded and 100 μl of dimethylsulfoxide (DMSO) was added. Absorbance was read at 570 nm with a TecanSunrise ELISA plate reader. The control group consisted of cells without compounds and is referred to as 100% of viable cells. IC50 was determined using Prism software.
(§2) All compounds have weak effect on cell cytotoxicity. The predictive utility of cell based cytotoxicity assays to assess the potential in vivo anticancer activity of compounds with selected cancer cell lines is well established in the art and the use of whole cells, instead of isolated protein receptors or enzymes, provides a more reliable determination of activity. See, for example, Paull et al. (J. Nat'l Cancer Inst. 81:1088-1092, 1989); Monks et al. (J. Nat'l Cancer Inst. 83:757-766, 1991); Bandes et al. (J. Nat'l Cancer Inst. 86:770-775, 1994); and Kamate et al. (Int'l J. Cancer 100:571-579, 2002).

[2] = system: LPS-induced inflammation in the rat air-pouch model; assay: LPS-induced inflammation in rat air-pouch model; format: in vivo, rats; details: IV; for PGE2 production induced by LPS / TNFα production induced by LPS / LTB4 production induced by LPS / MCP-1 production induced by LPS: pouch exudate; for LTB4 production induced by LPS: FIG. 20C; for MCP-1 production induced by LPS: FIG. 20D; for white blood cell count: two hours after LPS induction, FIG. 19
From the text: LPS-induced inflammation in the rat air-pouch model is believed to mimic the pathological process occurring in joint diseases such as arthritis. This is because the connective tissues formed along the air pouch are similar to those found in chronic joint diseases. LPS-induced inflammation and chronic joint diseases share other features, including markedly elevated PGE2, neutrophil infiltration, cytokine formation, and tissue damage.
An air cavity was produced at day −6 by subcutaneous injection of 20 ml of sterile air into the intrascapular area of the back of male Lewis rats (175 to 200 g). An additional 10 ml of air was injected into the cavity at day −3 to keep the space open. At day 0, compounds were administered intravenously and one hour later lipopolysaccharide (LPS: 2.5 ml of 2 μg/ml in PBS) was injected into the pouch to produce an inflammatory reaction. […] The pouch fluid was collected. The volume of exudates was measured and the number of leukocytes present in the exudates was determined with a Coulter counter. The differential count was determined by Wright-Giemsa staining. PGE2, LTB4, MCP, and TNFα were determined in the pouch exudates by specific ELISAs.

[3] = system: PC-3 human prostate carcinoma cell; assay: MTT cytotoxicity on PC-3; format: cell-based
Description: as §1, §2

TNFα = TNFα (Homo sapiens, UniProt P01375); assay: TNFα-induced apoptosis in WEHI-13VAR cell line; format: cell-based; details: for inhibition at 10 µM: 1 × 10^−5 M; for inhibition at 20 µM: 2 × 10^−5 M; for inhibition at 40 µM: 4 × 10^−5 M; for inhibition at 5 µM: 5 × 10^−6 M
Chain of TNFα (P01375 77-233 limits assumed, species assumed): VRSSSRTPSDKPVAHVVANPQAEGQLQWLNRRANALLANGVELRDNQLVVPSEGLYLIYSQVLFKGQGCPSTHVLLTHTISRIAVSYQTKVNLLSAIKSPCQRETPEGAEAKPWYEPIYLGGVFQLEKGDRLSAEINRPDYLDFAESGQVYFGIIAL
Description: Effect of compounds on TNFα-induced apoptosis was measured by a standard biological assay using WEHI-13VAR cells. These cells undergo apoptosis when they are incubated in the presence of TNFα and actinomycin D. 2×10^4 WEHI-13VAR cells were incubated in RPMI supplemented with 1% sodium pyruvate and 10% FBS, overnight at 37° C. for cell adherence. The cells were then cultured in the presence of 1 μg/ml of actimomycin D ([…]) and 0.04 nM TNFα with or without compounds at 37° C. After 16 hr to 24 hr, 50 μl of a solution of 2 mg/ml of MIT was added to each well and the plate was then incubated for 4 hr at 37° C. Only viable cells metabolize MTT to form formazan salt, which is detectable by the measurement of absorbance at 570 nm. After the incubation, the plate was inverted to remove medium and dead cells. 150 μDMSO was added to each well to stop the reaction and solubilize the formazan salt. Optical density was read on a Bio-Tek EL 800 UV microplate reader. A decrease in the optical density is direct evidence of cell apoptosis induced by TNFα. Compounds were also compared to the activity of an anti-TNFα neutralizing antibody.

TNFα production = assay: LPS-induced TNFα production in J774A.1 cells (ELISA); format: cell-based; details: Mus musculus, J774.A1, 24 hr
Description: Effect of compounds on TNFα production was measured by ELISA using J774A.1 cells stimulated by LPS. J774A.1 cells were cultured in the presence or absence of LPS and compound. Cells were cultured for 24 hr at 37° C. and thereafter the supernatants were collected for the determination of the concentration of TNFα by ELISA as recommended by the manufacturer (BD Biosciences). Data was analyzed in Microsoft Excel software and the concentration of compound which inhibits 50% of TNFα production (IC50) was calculated using Prism software.

PC-3 cells = assay: In vitro PC-3 cell migration or invasion assay (EGF-induced); format: cell-based, human; details: mitomycin C treated cells, 24 hr
Description: An in vitro migration assay was used to assess cell mobility in two dimensions. PC-3 cells were plated on a 12-well plate and grown to confluence in RPMI+10% FBS. A rubber policeman was used to create a denuded area. Confluent cells were quiesced by mitomycin C treatment (0.5 μM) at the concentration used to prevent the confounding issue of cell proliferation and protein synthesis. These cells were also incubated in the presence or absence of […] growth factor (EGF) and compound for 24 hr, then they were photographed.
The effects of EGF and compound V on PC-3 cell migration or invasion in the in vitro migration assay were determined. EGF promotes the migration or invasion of PC-3 cells treated with mitomycin compared to control (i.e., no added EGF).

[4] = 24 hr culture, read-out: IC50 of 24-hour culture HUVEC
[5] = 72 hr culture, read-out: IC50 of 72-hour culture HUVEC
[6] = twelve hours after induction, FIG. 21B
[7] = twelve hours post-LPS induction, FIG. 21A
[8] = two hours after induction, FIG. 20A
[9] = two hours after induction, FIG. 20B
[10] = 24 hr culture, read-out: IC50 of 24-hour culture PC-3
[11] = 72 hr culture, read-out: IC50 of 72-hour culture PC-3

| SMILES | IC50 [1, 4] | IC50 [1, 5] | PGE2 production induced by LPS [2, 6] | TNFα production induced by LPS [2, 7] | TNFα production induced by LPS [2, 8] | PGE2 production induced by LPS [2, 9] | LTB4 production induced by LPS ([2]; two hours after induction) | MCP-1 production induced by LPS ([2]; two hours after induction) | white blood cell count [2] | IC50 [3, 10] | IC50 [3, 11] | inhibition at 10 µM (TNFα) | inhibition at 20 µM (TNFα) | inhibition at 40 µM (TNFα) | inhibition at 5 µM (TNFα) | IC50 (TNFα production) | EGF-induced PC-3 migration or invasion (PC-3 cells; 1 μM to 20 μM) | EGF-induced PC-3 migration or invasion (PC-3 cells; 1 μM to 10 μM) |
| --- | --- | --- | --- | --- | --- | --- | --- | --- | --- | --- | --- | --- | --- | --- | --- | --- | --- | --- |
| NCCCCCNc1nc(NCCc2ccc(S(N)(=O)=O)cc2)nc(Nc2cccc(F)c2)n1 [Compound II] | 92.2 µM | 38.9 µM | weak and insignificant increase | no effect | increase the concentration of TNFα | weak and insignificant inhibition | weak inhibition | no influence | significant inhibition | 32.2 µM | 18.5 µM | 64.2% | 83.8% | 78.9% | 45.2% | – | – | – |
| NCCCCCNc1nc(NCCc2ccc(O)cc2)nc(Nc2cccc(F)c2)n1 [Compound I] | 18.8 µM | 10.1 µM | – | – | – | – | – | – | – | 49.4 µM | 11.8 µM | 33.1% | 58.9% | – | 17.9% | 29 µM | inhibition of the EGF-induced PC-3 migration or invasion | – |
| NCCCCCNc1nc(NCCc2ccc(O)cc2)nc(Nc2ccc(F)cc2)n1 [Compound V] | 31.8 µM | > 100 µM | significant inhibition | significant inhibition | significant inhibition | significant inhibition | weak inhibition | weak inhibition | significant inhibition | 43.3 µM | 26.8 µM | 22.2% | 51.9% | 75.9% | 8.2% | 13 µM | – | inhibition of the EGF-induced PC-3 migration or invasion |
